Test results published in PMC3578862, “Single Residue Mutation in Active Site of Serine Acetyltransferase Isoform 3 from Entamoeba histolytica Assists in Partial Regaining of Feedback Inhibition by Cysteine” (PLoS ONE, 2013).

Key:
[1] = target: T1, Serine acetyltransferase isoform 3 (EhSAT3) (Entamoeba histolytica, UniProt Q401L4, S208H); experiment: SAT activity assay at […] nm, […] serine; […] inhibition at […]; assay type: biochemical
T1 construct: gene SAT 3

[2] = target: T2, Serine acetyltransferase isoform 1 (EhSAT1) (Entamoeba histolytica, UniProt Q9U8X2, H208S); experiment: SAT activity assay at […] nm, […] serine; assay type: biochemical
T2 construct: gene EhSAT

N[C@@H](CO)C(=O)O = experiment: purified protein; assay type: biochemical, Entamoeba histolytica; details: acetyl coenzyme A active site

| Molecule | IC50 [1] [µM] | IC50 [2] [µM] | Km (N[C@@H](CO)C(=O)O) [µM] |
| --- | --- | --- | --- |
| N[C@@H](CS)C(=O)O [L-cysteine] | 3500 | 170 | – |
| Serine acetyltransferase isoform 1 (EhSAT1) (Entamoeba histolytica; H208S) | – | – | 68.4 |
| Serine acetyltransferase isoform 3 (EhSAT3) (Entamoeba histolytica; S208H) | – | – | 185.5 |
